Measurements: patent US7053107B2, “Indazole compounds and pharmaceutical compositions for inhibiting protein kinases, and methods for their use” (Agouron Pharmaceuticals, Inc., priority 2002, dated 2006)

Experiments:
[1] = system: human umbilical vein endothelial cells (HUVEC); assay: HUVEC Proliferation Assay (VEGF-stimulated); assay type: cell-based
In short: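 Serum-starved HUVEC (passage 3–4, F12K + 1% FBS, 24 h) pretreated 1 h with compound (final DMSO 0.1%), then stimulated with 6 ng/mL VEGF for 72 h. Proliferation read by 4 h MTT reduction, absorbance 595. IC50 from seven-point 0.5-log curves in triplicate; screening % inhibition normalised to VEGF-only and starvation controls.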

[2] = Human Liver Microsome (HLM) Assay; assay type: in vitro ADME
Method: Compound metabolism in human liver microsomes was measured by LC-MS analytical assay procedures as follows. First, human liver microsomes (HLM) were thawed and diluted to 5 mg/mL with cold 100 mM potassium phosphate (KPO4) buffer. Appropriate amounts of KPO4 buffer, NADPH-regenerating solution (containing B-NADP, glucose-6-phosphate, glucose-6-phosphate dehydrogenase, and MgCl2), and HLM were preincubated in 13×100 mm glass tubes at 37 C. for 10 min. (3 tubes per test compound—triplicate). Test compound (5 µM final) was added to each tube to initiate reaction and was mixed by gentle vortexing, followed by incubation at 37° C. […] Samples were centrifuged at 4000 rpm for 20 min. to precipitate proteins and salt (Beckman Allegra 6KR, S/N ALK98DO6, #634). Supernatant was transferred to new 12×75 mm glass tubes and evaporated by Speed-Vac centrifugal vacuum evaporator. Samples were reconstituted in 200 μL 0.1% formic acid/acetonitrile (90/10) and vortexed vigorously to dissolve. The samples were then transferred to separate polypropylene microcentrifuge tubes and centrifuged at 14000×g for 10 min. (Fisher Micro 14, S/N M0017580). […]
The combined compound samples were injected into the LC-MS system, composed of a Hewlett-Packard HP 1100 diode array HPLC and a Micromass Quattro II triple quadruple mass spectrometer operating in positive electrospray SIR mode (programmed to scan specifically for the molecular ion of each test compound. Each test compound peak was integrated at each timepoint. […]

LCK = target: T1, LCK (Homo sapiens, UniProt P06239, C224D/P223M); assay: Lymphocyte-Specific Protein-Tyrosine Kinase (LCK) spectrophotometric assay; assay type: biochemical; conditions: 1 μM compound; read-out: LckP* % inhibit @1 μM
T1 construct: starting from amino acid residue 223 to the end of the protein at residue 509; made in house; host or cells: insect cells
T1 sequence (P06239 223-509 P223M/C224D): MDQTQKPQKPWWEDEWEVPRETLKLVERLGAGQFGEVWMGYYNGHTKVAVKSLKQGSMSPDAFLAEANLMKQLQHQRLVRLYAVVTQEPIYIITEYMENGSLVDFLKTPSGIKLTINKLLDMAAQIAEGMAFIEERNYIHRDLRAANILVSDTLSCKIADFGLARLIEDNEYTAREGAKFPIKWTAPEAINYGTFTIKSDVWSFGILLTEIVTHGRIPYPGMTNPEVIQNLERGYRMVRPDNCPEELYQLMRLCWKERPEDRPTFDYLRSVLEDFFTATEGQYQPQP

HUVEC [3] = assay: bFGF Huvec; assay type: cell-based; conditions: Homo sapiens
HUVEC [4] = assay: HUVEC + albumin proliferation; assay type: cell-based; conditions: Homo sapiens, 72 h, with albumin
Method: This assay determines the ability of a test compound to inhibit the growth factor-stimulated proliferation of human umbilical vein endothelial cells (“HUVEC”). HUVEC cells (passage 3–4, Clonetics, Corp.) were thawed into EGM2 culture medium (Clonetics Corp) in T75 flasks. Fresh EGM2 medium was added to the flasks 24 hours later. Four or five days later, cells were exposed to another culture medium (F12K medium supplemented with 10% fetal bovine serum (FBS), 60 μg/mL endothelial cell growth supplement (ECGS), and 0.1 mg/mL heparin). Exponentially-growing HUVEC cells were used in experiments thereafter. Ten to twelve thousand HUVEC cells were plated in 96-well dishes in 100 μl of rich, culture medium (described above). The cells were allowed to attach for 24 hours in this medium. The medium was then removed by aspiration and 105 μl of starvation media (F12K+1% FBS) was added to each well. After 24 hours, 15 μl of test agent dissolved in 1% DMSO in starvation medium or this vehicle alone was added into each treatment well; the final DMSO concentration was 0.1%. One hour later, 30 μl of VEGF (30 ng/mL) in starvation media was added to all wells except those containing untreated controls; the final VEGF concentration was 6 ng/mL. Cellular proliferation was quantified 72 hours later by MTT dye reduction, at which time cells were exposed for 4 hours MTT (Promega Corp.). Dye reduction was stopped by addition of a stop solution (Promega Corp.) and absorbance at 595λ was determined on a 96-well spectrophotometer plate reader.
IC50 values were calculated by curve-fitting the response of A^595 to various concentrations of the test agent; typically, seven concentrations separated by 0.5 log were employed, with triplicate wells at each concentration. For screening compound library plates, one or two concentrations (one well per concentration) were employed, and the % inhibition was calculated by the following formula: % inhibition=(control−test)[…](control−starvation) where

[5] = target: T2, phosphorylated VEGF-R2Δ50 (Homo sapiens, UniProt P35968, DEL940-989/E990V); assay: VEGF-R2 coupled spectrophotometric (FLVK-P) assay, phosphorylated construct; assay type: biochemical; conditions: Ki (nM)
T2 construct: VEGF-R2Δ50 contains residues 806–939 and 990–1171; made in house; host or cells: baculovirus/insect cell system
T2 sequence (P35968 with tags, fused parts or gaps DEL940-989/E990V limits assumed): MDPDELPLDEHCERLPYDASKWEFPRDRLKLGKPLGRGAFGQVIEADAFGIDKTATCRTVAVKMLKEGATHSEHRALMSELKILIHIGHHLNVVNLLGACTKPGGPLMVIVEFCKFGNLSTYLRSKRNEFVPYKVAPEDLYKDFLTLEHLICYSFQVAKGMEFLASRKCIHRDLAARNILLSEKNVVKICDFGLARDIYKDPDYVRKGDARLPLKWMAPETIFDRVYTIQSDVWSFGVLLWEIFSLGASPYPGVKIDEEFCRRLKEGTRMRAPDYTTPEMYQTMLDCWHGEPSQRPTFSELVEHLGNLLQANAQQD
Description: This construct determines the ability of a test compound to inhibit tyrosine kinase activity. A construct (VEGF-R2Δ50) of the cytosolic domain of human vascular endothelial growth factor receptor 2 (VEGF-R2) lacking the 50 central residues of the 68 residues of the kinase insert domain was expressed in a baculovirus/insect cell system. Of the 1356 residues of full-length VEGF-R2, VEGF-R2Δ50 contains residues 806–939 and 990–1171, and also one point mutation (E99OV) within the kinase insert domain relative to wild-type VEGF-R2. Autophosphorylation of the purified construct was performed by incubation of the enzyme at a concentration of 4 μM in the presence of 3 mM ATP and 40 mM MgCl2 in 100 mM HEPES, pH 7.5, containing 5% glycerol and 5 mM DTT, at 4° C. for 2 h. […] See Parast et al., Biochemistry, 37,16788–16801 (1998).
The production of ADP from ATP that accompanies phosphoryl transfer was coupled to oxidation of NADH using phosphoenolpyruvate (PEP) and a system having pyruvate kinase (PK) and lactic dehydrogenase (LDH). The oxidation of NADH was monitored by following the decrease of absorbance at 340 nm (e340=6.22 cm^−1 mM^−1) using a Beckman DU 650 spectrophotometer. […] Ki values were determined by measuring enzyme activity in the presence of varying concentrations of test compounds. The data were analyzed using Enzyme Kinetic and Kaleidagraph software.

| SMILES | % remaining (HLM) ([2]; @0.5 h) | inhibition at 1 µM (LCK) | % remaining (HLM) ([2]; @2 h) | Ki [5] | IC50 [1] | IC50 (HUVEC [3]) | IC50 (HUVEC [4]) |
| --- | --- | --- | --- | --- | --- | --- | --- |
| C#CCNC(=O)c1ccccc1Nc1ccc2c(/C=C/c3cc(C)ccn3)n[nH]c2c1 [Example 32, 2-{3-[(E)-2-(4-Methyl-pyridin-2-yl)-vinyl]-1H-indazol-6-ylamino}-N-prop-2-ynyl-benzamide] | 97@0.5 h % |  |  |  | 0.61 nM |  |  |
| C=C(C)CNC(=O)c1ccccc1Nc1ccc2c(/C=C/c3ccccn3)n[nH]c2c1 [Example 3(k), N-(2-Methyl-allyl)-2-[3-((E)-2-pyridin-2-yl-vinyl)-1H-indazol-6-ylamino]-benzamide] | 75@0.5 h % | 19% |  |  | 0.8 nM | 1000 nM |  |
| COc1ccccc1CNC(=O)c1ccccc1Nc1ccc2c(/C=C/c3ccccn3)n[nH]c2c1 [Example 3(h), N-(2-Methoxy-benzyl)-2-[3-((E)-2-pyridin-2-yl-vinyl)-1H-indazol-6-ylamino]-benzamide] | 75@0.5 h % | 37% |  |  | 1.6 nM |  |  |
| O=C(NCC#CCO)c1ccccc1Nc1ccc2c(/C=C/c3ccccn3)n[nH]c2c1 [Example 64, N-(4-Hydroxy-but-2-ynyl)-2-[3-(2-pyridin-2-yl-vinyl)-1H-indazol-6-ylamino]-benzamide] | 66@0.5 h % |  |  |  | 0.15 nM | 1250 nM |  |
| Cc1cc(C)nc(/C=C/c2n[nH]c3cc(Nc4ccccc4C(=O)NCC#CCO)ccc23)c1 [Example 10, 2-{3-[(E)-2-(4,6-Dimethyl-pyridin-2-yl)-vinyl]-1H-indazol-6-ylamino}-N-(4-hydroxy-but-2-ynyl)-benzamide] | 80@0.5 h % |  |  | 6.07 nM | 0.67 nM |  |  |

Second part, led by results:

| % remaining (HLM) ([2]; @0.5 h) | inhibition at 1 µM (LCK) | % remaining (HLM) ([2]; @2 h) | Ki [5] | SMILES | IC50 [1] | IC50 (HUVEC [3]) | IC50 (HUVEC [4]) |
| --- | --- | --- | --- | --- | --- | --- | --- |
|  | 11% | 68@2 h % |  | O=C(NC1CC1)c1ccccc1Nc1ccc2c(/C=C/c3ccccn3)n[nH]c2c1 [Example 3(d), N-Cyclopropyl-2-[3-((E)-2-pyridin-2-yl-vinyl)-1H-indazol-6-ylamino]-benzamide] | 0.4 nM | 147 nM | 7.5 nM |
| 74@0.5 h % |  |  |  | Cc1ccnc(/C=C/c2n[nH]c3cc(Nc4ccccc4C(=O)NC4CC4)ccc23)c1 [Example 2(h), N-Cyclopropyl-2-{3-[(E)-2-(4-methyl-pyridin-2-yl)-vinyl]-1H-indazol-6-ylamino}-benzamide] | 1.6 nM | 70 nM |  |
| 65@0.5 h % | 17% |  |  | O=C(NC1CCC1)c1ccccc1Nc1ccc2c(/C=C/c3ccccn3)n[nH]c2c1 [Example 3(j), N-Cyclobutyl-2-[3-((E)-2-pyridin-2-yl-vinyl)-1H-indazol-6-ylamino]-benzamide] | 1.7 nM |  |  |
